# According to patent US8324457B2, “Soybean event 3560.4.3.5 and compositions and methods for the identification and/or detection thereof” (Pioneer Hi-Bred International, Inc., priority 2006, dated 2012):
# Read-outs that look alike come from different tables or passages of the source.
# Legend:
# [1] = system: 3560.4.3.5 soybean; test: ALS inhibitor herbicide tolerance field trials, crop response rating; set-up: species or system Glycine max; settings: in vivo
# Text: ALS inhibitor herbicide tolerance of the gm-hra gene was compared to sulfonylurea tolerant soybeans (STS®) by growing T4 plants of event 3560.4.3.5 and a STS® cultivar. […] Spray treatments were applied at the V3 growth stage and consisted of one of the following: an unsprayed control, 8.8 g ai ha^−1 rimsulfuron (N-[[(4,6-dimethoxy-2-pyrimidinyl)amino]carbonyl]-3-(ethylsulfonyl)-2-pyridinesulfonamide), 8.8 g ai ha^−1 tribenuron methyl (methyl 2-[[[[(4-methoxy-6-methyl-1,3,5-triazin-2-yl)methylamino]carbonyl]amino]sulfonyl]benzoate), or 30.0 g ai ha^−1 chlorimuron ethyl (ethyl 2-[[[[(4-chloro-6-methoxypyrimidin-2-yl)amino]carbonyl]amino]sulfonyl]benzoate)+9.67 g ai ha^−1 thifensulfuron methyl. […] Plots were evaluated for crop response at 7 DAT and 14 DAT, and assigned a visual response score from 0% to 100% response. Crop response data were analyzed using the mixed model ANOVA procedure of SAS.
# ALS inhibitor herbicide tolerance trials were completed at two separate locations. Plants from the T5 generation of event 3560.4.3.5 and a STS® cultivar were grown in a RCB design in a split plot arrangement with three replications of paired 2.4 m rows (76.2 cm row spacing). […] Crop response data were analyzed using the mixed model ANOVA procedure of SAS. […]
# [2] = system: seedlings that possessed the 3560.4.3.5 event; test: Chlorsulfuron herbicide seedling test on germination paper; type: in vivo, Glycine max; settings: germination paper saturated with 20 ml/l of a 66.7 mg/l chlorsulfuron stock, pH 7.5; observed 10 days after initial treatment
# [3] = system: seedlings that lacked the event; test: as above; type: in vivo, Glycine max; settings: germination paper saturated with 20 ml/l of a 66.7 mg/l chlorsulfuron stock, pH 7.5; observed 10 days after initial treatment
# [4] = system: transgenic event 3560.4.3.5 soybean; test: Greenhouse herbicide tolerance of T0 and T1 plants, visual rating 10 days after spray; type: in vivo, Glycine max
# Text: Selected events were advanced at the T1 generation for herbicide tolerance confirmation in greenhouses. Plants were sprayed at the V3 growth stage with either 1.68 kg ae ha^−1 glyphosate, 60 g ai ha^−1 thifensulfuron methyl(methyl 3-[[[[(4-methoxy-6-methyl-1,3,5-triazin-2-yl)amino]carbonyl]amino]sulfonyl]-2-thiophenecarboxylate), or a sequential […] […] […] Since the T1 events were segregating, only the non-susceptible plants were scored, and an average rating of tolerant plants within each event was calculated.
# (§1) T0 3560.4.3.5 soybean were evaluated for glyphosate tolerance.
# The 3560.4.3.5 event was advanced to the T1 generation in a greenhouse to confirm herbicide tolerance. The 3560.4.3.5 event had tolerance after application of 1.68 kg ae ha^−1 glyphosate, after application of 60.0 g ai ha^−1 thifensulfuron methyl, and after a sequential application of 70 g ai ha^−1 thifensulfuronmethyl at V3, […]
# [5] = system: 3560.4.3.5 soybean; type: in vivo, Glycine max; settings: glyphosate 1.68 kg ae ha^−1, ALS inhibitors 5.8 + 4.4 g ai ha^−1
# Protocol: The second set of tolerance experiments were designed to measure yield potential of 3560.4.3.5 soybean after application of common field use rates of glyphosate and/or ALS inhibitor herbicides. […] One experiment was grown at field A and two experiments were grown at field B and C (which were separated by planting date and physical distance of field locations.) In addition, the two fields had different environmental influence; one field experienced drought stress through the spring and early summer, the other was well irrigated throughout the growing season. Treatments were randomized within each of the replications and sprayed at the VC, V2, R2, or R5 growth stages. Treatments consisted of 1.68 kg ai ha^−1 glyphosate, 5.8 g ai ha^−1 chlorimuron ethyl+4.4 g ai ha^−1 thifensulfuron methyl, and 1.68 kg ai ha^−1 glyphosate+5.8 g ai ha^−1 chlorimuron ethyl+4.4 g ai ha^−1 thifensulfuron methyl. […] Plots were harvested and yield was calculated for each plot.
# The second set of experiments conducted with event 3560.4.3.5 were designed to measure yield potential after application of different herbicides at field use rates that would be commonly utilized for soybean production. Across the glyphosate, ALS inhibitor, and glyphosate plus ALS inhibitor treatments there was minimal (10% or less) to essentially no response at 7, 14, and 28 DAT (Table 20). When yield data was collected, there were no significant yield differences detected for any of the herbicide treatments applied at different the growth stages (Table 20). In addition, the replications that received herbicide treatments were not statistically different from the unsprayed control replications for yield (Table 20). Based upon multiple year herbicide tolerance trials, it can be concluded that event 3560.4.3.5 had excellent tolerance to field use rates of glyphosate, ALS inhibitor, and glyphosate plus ALS inhibitor herbicides. In addition, yield potential was not affected when event 3560.4.3.5 was sprayed with glyphosate, ALS inhibitor, and glyphosate plus ALS inhibitor chemistries at different vegetative and reproductive growth stages.
# [6] = system: untransformed control line; test: Field glyphosate tolerance trial, control line; type: in vivo, Glycine max; settings: any glyphosate application (3.36, 6.72 or 13.44 kg ae ha-1), 1 to 9 scale
# Protocol: (§2) The 3560.4.3.5 soybean event was evaluatead for glyphosate tolerance. […] Plots were evaluated for crop response at 7 and 14 days after treatment (DAT), and rated using a 1-9 score. Crop response data were analyzed using the general linear model (GLM) and mixed model analysis of variance (ANOVA) procedures of SAS. (The SAS System is a registered trademark of SAS Institute, Inc., Cary, N.C., USA)
# (§3) The T3 plants from the 3560.4.3.5 plants were sprayed in a glyphosate herbicide tolerance field trial. […] The untransformed control line was susceptible to any glyphosate application and was consistently rated as a 1. 3560.4.3.5 soybean T4 plants were advanced for additional glyphosate tolerance testing.
# [7] = system: 3560.4.3.5 soybean; test: Tolerance to glyphosate tank mixes with other pesticides at V2 or R2, crop response rating; settings: glyphosate 3.36 kg ae ha-1, chlorpyrifos 560.4, bentazon 1120.9, imazethapyr 141.3, fomesafen 263.4, tribenuron-methyl 17.5, thifensulfuron-methyl 17.5 g ai ha-1
# Protocol: The first experiments were grown in an RCB design of three replications of paired 3.7 m rows (76.2 cm row spacing), blocked by replication with randomized spray treatments within each replication. […] Visual response ratings (0% to 100%) were assigned to each plot at 7 DAT, 14 DAT, and 28 DAT. Crop response data were analyzed using the GLM and mixed model ANOVA procedures of SAS.
# [8] = system: untransformed parental line; test: Greenhouse glyphosate spray of the control line, visual rating; type: in vivo, Glycine max; settings: either glyphosate application rate of the T0 test; 1 to 9 scale, 1 = dead plant
# Protocol: Plants were rated using a 1 to 9 scale ten days after treatment (DAT), where 1=dead plant to 9=no observed spray response.
# as §1
# [9] = system: 3560.4.3.5 soybean; test: Field glyphosate tolerance trials, T3 and T4 plants, visual rating; type: in vivo, Glycine max
# Protocol: as §2
# Selected T4 lines were tested for glyphosate tolerance. This experiment was a RCB design in a split plot arrangement with two replications of individual 1.2 m rows (76.2 cm row spacing). At the V3 growth stage, 6.72 kg ae ha^−1 glyphosate was applied to one block, while another was unsprayed for use as a control. The third block received a sequential application of 6.72 kg ae ha^−1 glyphosate at V3 followed by 6.72 kg ae ha^−1 glyphosate at R1. Plots were evaluated for crop response at 7 DAT and 14 DAT, and assigned a visual response score from 0% to 100% response, where 0%=no response observed to 100%=plot completely dead.
# as §3
structure (smiles),measurement,setting,value
"COC(=O)c1ccccc1S(=O)(=O)NC(=O)Nc1nc(C)nc(OC)n1 [Metsulfuron methyl, methyl 2-[[[[(4-methoxy-6-methyl-1,3,5-triazin-2-yl)amino]carbonyl]amino]sulfonyl]benzoate]","crop response of 3560.4.3.5 soybean compared to STS, in words",[1],significantly lower crop response compared to STS®
"COc1nc(C)nc(NC(=O)NS(=O)(=O)c2ccccc2Cl)n1 [chlorsulfuron, 2-chloro-N-[[(4-methoxy-6-methyl-1,3,5-triazin-2-yl)amino]-carbonyl]benzenesulfonamide]",seedling response in chlorsulfuron solution,[2],germinated and grew normally
same,seedling response in chlorsulfuron solution,[3],created hooked unifoliolate leaves that did not expand and develop any further
"COC(=O)c1sccc1S(=O)(=O)NC(=O)Nc1nc(C)nc(OC)n1 [Thifensulfuron methyl, methyl 3-[[[[(4-methoxy-6-methyl-1,3,5-triazin-2-yl)amino]carbonyl]amino]sulfonyl]-2-thiophenecarboxylate]",average visual response rating,"[4]; T1 tolerant plants, thifensulfuron methyl 60.0 g ai ha-1 + NIS + AMS at V3, 10 days after application, scale to 9 = no response",7.0
same,"average visual response rating, first score of sequential application","[4]; T1 tolerant plants, thifensulfuron methyl 70 g ai ha-1 + NIS + AMS at V3, 10 days after the V3 application, scale to 9 = no response",8.0
O=C(O)CNCP(=O)(O)O [Glyphosate],crop response rating 7 DAT (LSMean),[5]; Application Stage R2,2.0%
same,crop response rating 14 DAT (LSMean),[5]; Application Stage R2,0.6%
same,crop response rating 28 DAT (LSMean),[5]; Application Stage R2,0.0%
same,crop response rating 7 DAT (LSMean),[5]; Application Stage R5,0.3%
same,crop response rating 14 DAT (LSMean),[5]; Application Stage R5,0.3%
same,crop response rating 28 DAT (LSMean),[5]; Application Stage R5,0.0%
same,crop response rating 7 DAT (LSMean),[5]; Application Stage V2,5.3%
same,crop response rating 14 DAT (LSMean),[5]; Application Stage V2,2.8%
same,crop response rating 28 DAT (LSMean),[5]; Application Stage V2,0.6%
same,crop response rating 7 DAT (LSMean),[5]; Application Stage VC,1.6%
same,crop response rating 14 DAT (LSMean),[5]; Application Stage VC,0.8%
same,crop response rating 28 DAT (LSMean),[5]; Application Stage VC,0.6%
same,visual rating,[6],1
same,"LSMean crop response rating, 7 DAT Average",[7]; applied at R2,1.7%
same,"LSMean crop response rating, 14 DAT Average",[7]; applied at R2,0.6%
same,"LSMean crop response rating, 28 DAT Average",[7]; applied at R2,0.0%
same,"LSMean crop response rating, 14 DAT Average",[7]; applied at V2,3.3%
same,"LSMean crop response rating, 28 DAT Average",[7]; applied at V2,0.6%
same,"LSMean crop response rating, 7 DAT Average","[7]; applied at V2, + NIS + AMS, 0% = no response, 100% = plot completely dead",3.9%
same,average visual response rating,"[4]; T0 plants, glyphosate 1.68 kg ae ha-1 + NIS + AMS, 10 days after application, greenhouse, scale 0 = dead plant to 9 = no response detected",7.0
same,average visual response rating,"[4]; T0 plants, glyphosate 3.36 kg ae ha-1 + NIS + AMS, 10 days after application, greenhouse, scale 0 = dead plant to 9 = no response detected",6.5
same,"average visual response rating, second score of sequential application","[4]; T1 tolerant plants, 70 g ai ha-1 thifensulfuron methyl at V3 followed by glyphosate 1.68 kg ae ha-1 at V6, 10 days after the V6 glyphosate application, scale to 9 = no response",8.0
same,average visual response rating,"[4]; T1 tolerant plants, glyphosate 1.68 kg ae ha-1 + NIS + AMS at V3, 10 days after application, scale to 9 = no response",7.0
same,visual rating,[8],1
same,LSMean visual rating,"[9]; T3 plants, glyphosate 3.36 kg ae ha-1, 7 DAT, 1 = completely dead plot to 9 = no response",8.0
same,LSMean visual rating,"[9]; T3 plants, glyphosate 6.72 kg ae ha-1, 7 DAT, 1 = completely dead plot to 9 = no response",6.7
same,LSMean visual rating,"[9]; T3 plants, glyphosate 13.44 kg ae ha-1, 7 DAT, 1 = completely dead plot to 9 = no response",5.7
same,LSMean visual rating,"[9]; T4 plants, glyphosate 6.72 kg ae ha-1 at V3, 7 DAT, 1 to 9 scale",6.8
same,LSMean visual rating,"[9]; T4 plants, glyphosate 6.72 kg ae ha-1 at V3, 14 DAT, 1 to 9 scale",7.8
same,LSMean visual rating,"[9]; T4 plants, sequential glyphosate 6.72 kg ae ha-1 at V3 then 6.72 at R1, 7 DAT after the R1 application, 1 to 9 scale",7.8
same,LSMean visual rating,"[9]; T4 plants, sequential glyphosate 6.72 kg ae ha-1 at V3 then 6.72 at R1, 14 DAT after the R1 application, 1 to 9 scale",7.7
"CCS(=O)(=O)c1cccnc1S(=O)(=O)NC(=O)Nc1nc(OC)cc(OC)n1 [Rimsulfuron, N-[[(4,6-dimethoxy-2-pyrimidinyl)amino]carbonyl]-3-(ethylsulfonyl)-2-pyridinesulfonamide]","crop response of 3560.4.3.5 soybean compared to STS, in words",[1],significantly lower crop response compared to STS®
